Results reported in patent US11572590B2, “Methods for evaluating tumor cell spheroids using 3D microfluidic cell culture device” (Dana-Farber Cancer Institute, Inc., priority 2017, dated 2023).
Where two headings read alike, the source gives them in different places.

Assays:
Test in all cases: SelectScreen Kinase Profiling, single point inhibition and IC50 for off-target kinases
Format in all cases: biochemical
off-target kinases [1] = biological target: T1, off-target kinases (Homo sapiens, UniProt Q8TF76); conditions: GSG2 (Haspin); Cmpd1 1000 μM; ATP Km app; Adapta
T1 sequence (Q8TF76 1-798): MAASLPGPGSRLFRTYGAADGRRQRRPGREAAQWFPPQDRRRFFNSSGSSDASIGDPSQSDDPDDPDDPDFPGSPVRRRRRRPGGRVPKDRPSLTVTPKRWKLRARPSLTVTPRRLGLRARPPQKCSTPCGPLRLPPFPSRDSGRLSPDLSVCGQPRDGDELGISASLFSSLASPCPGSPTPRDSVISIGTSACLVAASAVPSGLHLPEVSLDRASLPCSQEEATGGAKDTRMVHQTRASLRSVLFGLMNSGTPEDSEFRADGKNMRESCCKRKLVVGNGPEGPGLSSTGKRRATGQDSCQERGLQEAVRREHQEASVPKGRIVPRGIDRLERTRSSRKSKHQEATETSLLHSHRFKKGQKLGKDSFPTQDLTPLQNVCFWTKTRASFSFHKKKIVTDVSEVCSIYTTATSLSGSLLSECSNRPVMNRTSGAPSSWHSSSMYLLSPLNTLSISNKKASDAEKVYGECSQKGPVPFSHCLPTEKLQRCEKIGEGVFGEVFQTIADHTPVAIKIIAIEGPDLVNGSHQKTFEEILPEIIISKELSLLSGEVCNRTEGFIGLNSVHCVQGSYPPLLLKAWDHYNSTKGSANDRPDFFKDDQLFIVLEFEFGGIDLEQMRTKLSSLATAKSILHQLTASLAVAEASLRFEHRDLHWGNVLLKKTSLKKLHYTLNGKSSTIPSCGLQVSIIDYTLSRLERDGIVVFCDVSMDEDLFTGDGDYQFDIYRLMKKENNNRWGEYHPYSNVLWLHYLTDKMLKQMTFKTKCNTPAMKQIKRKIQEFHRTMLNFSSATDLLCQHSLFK

off-target kinases [2] = biological target: off-target kinases (Homo sapiens, UniProt P06241)
Chain of off-target kinases (Homo sapiens, UniProt P06241) (P06241 whole entry): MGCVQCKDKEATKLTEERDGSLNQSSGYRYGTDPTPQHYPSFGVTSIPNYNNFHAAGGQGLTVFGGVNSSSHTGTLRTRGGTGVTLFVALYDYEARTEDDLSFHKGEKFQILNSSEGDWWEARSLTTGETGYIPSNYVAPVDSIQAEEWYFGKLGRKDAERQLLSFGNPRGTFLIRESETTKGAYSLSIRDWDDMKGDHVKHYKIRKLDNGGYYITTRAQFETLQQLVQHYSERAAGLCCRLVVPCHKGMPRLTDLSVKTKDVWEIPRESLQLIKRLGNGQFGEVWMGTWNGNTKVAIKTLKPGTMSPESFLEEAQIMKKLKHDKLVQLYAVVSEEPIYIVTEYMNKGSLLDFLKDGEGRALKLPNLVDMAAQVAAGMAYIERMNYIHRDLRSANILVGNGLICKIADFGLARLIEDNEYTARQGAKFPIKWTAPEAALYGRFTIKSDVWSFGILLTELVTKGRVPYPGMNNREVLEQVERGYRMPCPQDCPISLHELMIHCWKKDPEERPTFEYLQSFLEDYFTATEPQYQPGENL

off-target kinases [3] = biological target: T2, off-target kinases (Homo sapiens, UniProt P21709); conditions: EPHA1, ZLYTE, ATP Km app
T2 sequence (P21709 26-976): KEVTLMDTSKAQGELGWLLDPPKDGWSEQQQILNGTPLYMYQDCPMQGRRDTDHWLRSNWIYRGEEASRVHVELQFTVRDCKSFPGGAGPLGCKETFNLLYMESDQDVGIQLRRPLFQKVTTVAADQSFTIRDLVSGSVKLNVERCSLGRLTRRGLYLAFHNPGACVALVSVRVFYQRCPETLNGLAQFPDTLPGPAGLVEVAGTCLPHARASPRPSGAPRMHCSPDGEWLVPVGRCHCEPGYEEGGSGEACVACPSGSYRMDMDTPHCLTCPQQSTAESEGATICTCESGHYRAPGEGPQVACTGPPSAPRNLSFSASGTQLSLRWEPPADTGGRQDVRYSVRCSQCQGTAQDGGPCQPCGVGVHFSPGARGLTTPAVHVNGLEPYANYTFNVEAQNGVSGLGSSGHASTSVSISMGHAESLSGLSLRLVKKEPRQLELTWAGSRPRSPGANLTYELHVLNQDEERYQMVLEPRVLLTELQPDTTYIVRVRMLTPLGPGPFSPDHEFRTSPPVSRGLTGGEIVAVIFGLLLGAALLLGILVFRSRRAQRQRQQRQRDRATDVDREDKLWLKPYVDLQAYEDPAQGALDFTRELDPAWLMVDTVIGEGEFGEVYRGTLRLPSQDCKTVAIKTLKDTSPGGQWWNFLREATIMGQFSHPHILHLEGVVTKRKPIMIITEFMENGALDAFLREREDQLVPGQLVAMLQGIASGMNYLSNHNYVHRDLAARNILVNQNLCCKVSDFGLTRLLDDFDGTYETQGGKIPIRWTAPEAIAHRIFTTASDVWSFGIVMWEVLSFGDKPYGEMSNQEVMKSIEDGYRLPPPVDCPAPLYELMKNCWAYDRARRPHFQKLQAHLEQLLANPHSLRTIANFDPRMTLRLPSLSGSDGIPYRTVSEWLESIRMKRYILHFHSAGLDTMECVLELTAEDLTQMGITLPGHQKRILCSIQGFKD

N#Cc1cc(-c2ncnc(Nc3ccc(N4CCN(C5COC5)CC4)cc3)n2)ccc1OC1CCOCC1 [Compound 1, 5-(4-((4-(4-(oxetan-3-yl)piperazin-1-yl)phenyl)amino)-1,3,5-triazin-2-yl)-2-((tetrahydro-2H-pyran-4-yl)oxy)benzonitrile]
% Inhibition 1 (off-target kinases [1]): 7% | % Inhibition 2 (off-target kinases [1]): −20% | % Inhibition Avg (off-target kinases [1]): −6% | inhibition (off-target kinases [2]; FYN A, LanthaScreen Binding, read-out: % Inhibition Avg): 18% | inhibition (off-target kinases [2]; FYN, ATP Km app, ZLYTE, read-out: % Inhibition 1): 85% | inhibition (off-target kinases [2]; FYN, ATP Km app, ZLYTE, read-out: % Inhibition 2): 85% | inhibition (off-target kinases [2]; FYN, ATP Km app, ZLYTE, read-out: % Inhibition Avg): 85% | inhibition (off-target kinases [3]; read-out: % Inhibition 1): 29% | inhibition (off-target kinases [3]; read-out: % Inhibition 2): 24% | inhibition (off-target kinases [3]; read-out: % Inhibition Avg): 27%
